Reference: patent US8658202B2, “Coated drug delivery formulations” (Western University of Health Sciences, priority 2001, dated 2014)
Read-outs that look alike come from different tables or passages of the source. Marks after values point to notes of the source that are not given here.

Tests used:
[1] = Pharmacokinetics of halofantrine enantiomers after oral gavage of proliposomal or control suspension; type: in vivo, Sprague-Dawley rats; details: 7 mg/kg oral gavage, rats; for AUC: AUC0-24, mean±SD; for Cmax / Tmax: mean±SD
Procedure: The pharmacokinetic parameters of the enteric coated proliposomal formulation of halofantrine were evaluated as follows. The proliposomal product was prepared as a suspension in 0.78% methylcellulose. A non-liposomal suspension formulation (control) was prepared by dispersing halofantrine powder in 1% methylcellulose. Sprague-Dawley rats were cannulated at the right jugular vein under halothane anesthesia. After an overnight rest, the rats were given 7 mg/kg of a halofantrine suspension as either the proliposomal (7 rats) or control (6 rats) formulation by oral gavage. Serial blood samples were obtained from the cannula until 48 h post-dose. A stereospecific HPLC assay was used to measure plasma concentration of halofantrine enantiomers. Noncompartmental pharmacokinetic methods were used to determine AUC0-24, Cmax and tmax. Student's unpaired t-test was used to assess significance of differences.

[2] = Comparison of preparation methods: texture of product; type: physicochemical; details: 12% drug, 63% lecithin (DMPC)
Source text: (§1) One embodiment of the present invention was compared to a control method for producing pharmaceutical formulations. The control method used in the following examples is disclosed by Ganter in U.S. Pat. No. 5,635,206, herein incorporated by reference, at Example 1, except that the percentage of water used was 5% and 0%. To exemplar drugs which are poorly water soluble were used: glyburide and benzocaine.
(§2) The following tables summarize the protocol used and the results.

[3] = Comparison of preparation methods: absorbance in the aqueous phase (incorporation with the lipid); type: physicochemical
Source text: as §1, §2
Some embodiments of the present invention have one or more of the aforementioned advantages.

[4] = Comparison of preparation methods: particle size; type: physicochemical
Source text: as §1, §2

[5] = Control: halofantrine powder in 1% methylcellulose
[6] = Liposome: enteric coated proliposomal formulation

SMILES	Texture ([2]; Applicant's Method)	Texture ([2]; Control Method With 0% Water)	Texture ([2]; Control Method With 5% Water)	Absorbance ([3]; Applicant's Method)	Absorbance ([3]; Control Method With 0% Water)	Absorbance ([3]; Control Method With 5% Water)	Particle Size ([4]; Applicant's Method)	Particle Size ([4]; Control Method With 0% Water)	Particle Size ([4]; Control Method With 5% Water)	other results
CCCCN(CCCC)CCC(O)c1cc2c(Cl)cc(Cl)cc2c2cc(C(F)(F)F)ccc12 (single isomer, unassigned; (+)) [(+)-HF, halofantrine]										AUC [1, 5]: 5.2 ± 0.81^b μg × h/mL; Cmax [1, 5]: 391 ± 59.2^b ng/mL; Tmax [1, 5]: 7.0 ± 2.3 h; AUC ([1]; Liposome: enteric coated proliposomal formulation in 0.78% methylcellulose): 7.7 ± 1.8^a,b μg × h/mL; Cmax [1, 6]: 722 ± 170^a,b ng/mL; Tmax [1, 6]: 4.1 ± 2.3 h
CCCCN(CCCC)CCC(O)c1cc2c(Cl)cc(Cl)cc2c2cc(C(F)(F)F)ccc12 (single isomer, unassigned; (-)) [(−)-HF, halofantrine]										AUC ([1]; Sprague-Dawley, rat, plasma, po, 7 mg/kg, Control: halofantrine powder in 1% methylcellulose, read-out: AUC): 1900 ± 530 ng·h/mL; Cmax ([1]; Sprague-Dawley, rat, plasma, po, 7 mg/kg, Control: halofantrine powder in 1% methylcellulose, read-out: Cmax): 196 ± 42.3 ng/mL; Tmax ([1]; Sprague-Dawley, rat, plasma, po, 7 mg/kg, Control: halofantrine powder in 1% methylcellulose, read-out: Tmax): 4.6 ± 2.1 h; AUC ([1]; Sprague-Dawley, rat, plasma, po, 7 mg/kg, Liposome: enteric coated proliposomal formulation in 0.78% methylcellulose, read-out: AUC): 2600 ± 660 ng·h/mL; Cmax ([1]; Sprague-Dawley, rat, plasma, po, 7 mg/kg, Liposome: enteric coated proliposomal formulation, read-out: Cmax): 360 ± 80.5 ng/mL; Tmax ([1]; Sprague-Dawley, rat, plasma, po, 7 mg/kg, Liposome: enteric coated proliposomal formulation, read-out: Tmax): 4 ± 1.3 h
CCOC(=O)c1ccc(N)cc1 [Benzocaine, benzocaine]	Powder	Clear Solution	Clear Solution	3.7377	3.6130	3.6030	9.163 μm	3.830 μm	1.190 μm	
COc1ccc(Cl)cc1C(=O)NCCc1ccc(S(=O)(=O)NC(=O)NC2CCCCC2)cc1 [Glyburide, glyburide]	Powder	Milky	Milky	1.9446	3.9141	3.8177	8.638 μm	5.978 μm	2.544 μm	
